Molecules are shown by their SMILES.

This is an account of results in patent publication EP2948187B1, “HETEROCYCLES AND THEIR RADIOLABELED ANALOGS USEFUL AS COX-1 SELECTIVE INHIBITORS” (Universita' Degli Studi di Bari, priority 2013, dated 2014).

For one test, the target named is COX-1 (Ovis aries, UniProt P05979). Briefly: COX-1 inhibition assay (as disclosed in Chem. Med. Chem. 2012, 7, 629-641). It counts as biochemical.
The subject of test [1] is ovarian surface epithelial cells allografted in female nude mice. Conditions: after treatment with SC-560, recent reports; cited from earlier work.

Sequence of COX-1 (P05979 25-600): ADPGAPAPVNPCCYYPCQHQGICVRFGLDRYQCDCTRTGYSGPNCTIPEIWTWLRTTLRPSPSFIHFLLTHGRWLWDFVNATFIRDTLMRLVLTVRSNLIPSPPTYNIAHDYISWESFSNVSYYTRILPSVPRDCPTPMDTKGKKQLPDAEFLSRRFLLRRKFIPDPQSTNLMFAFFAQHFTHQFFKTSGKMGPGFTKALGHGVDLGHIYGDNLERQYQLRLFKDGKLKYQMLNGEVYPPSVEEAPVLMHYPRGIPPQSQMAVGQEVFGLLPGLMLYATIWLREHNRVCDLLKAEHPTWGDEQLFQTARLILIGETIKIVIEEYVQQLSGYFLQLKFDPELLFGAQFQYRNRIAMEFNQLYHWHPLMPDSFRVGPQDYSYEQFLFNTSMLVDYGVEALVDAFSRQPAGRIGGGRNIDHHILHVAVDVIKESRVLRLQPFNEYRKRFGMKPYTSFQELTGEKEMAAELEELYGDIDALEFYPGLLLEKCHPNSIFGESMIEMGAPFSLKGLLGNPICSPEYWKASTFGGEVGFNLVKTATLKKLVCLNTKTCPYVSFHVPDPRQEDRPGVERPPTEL
Experimental for COX-1: The biological assays were carried out as disclosed in Chem. Med. Chem. 2012, 7, 629 - 641.

Usually IC50 stands for the concentration needed to halve the response being measured. Read a high IC50 as a need for much substance. Molecule `COc1ccc(-c2noc(C)c2-c2ccc(OC)cc2)cc1` [(III), 3,4-bis(4-methoxyphenyl)-5-methylisoxazole] displayed an IC50 against COX-1 of 76 nM.
For `COc1ccc(-n2nc(C(F)(F)F)cc2-c2ccc(Cl)cc2)cc1` [SC-560], in test [1], the tumor growth result is recorded as “significantly reduction of tumor growth”.
